Assay results taken from patent publication US4735958A, “Trans-6-[2-[2-(substituted-phenyl)-3- (or 4-) heteroaryl-5-substituted-1H-pyrrol-1-yl]-ethyl]tetrahydro-4-hydroxy-2H-p yran-2-one inhibitors of cholesterol biosynthesis” (Warner-Lambert Company, priority 1986, dated 1988).

system: sterol synthesis; assay: CSI: inhibition of cholesterol biosynthesis, incorporation of cholesterol-^14 C-acetate into nonsaponifiable lipid by rat liver homogenate; type: biochemical; details: 50% inhibition of sterol synthesis over a one-hour period; liver homogenate of rats fed chow diet containing 5% cholestyramine for four days
Protocol: The ability of compounds of the present invention to inhibit the biosynthesis of cholesterol was measured by the procedure described by R. E. Dugan et al., Archiv. Biochem. Biophys., (1972), 152, 21-27. In this method, designated CSI, the level of HMG-CoA enzyme activity in standard laboratory rats is increased by feeding the rats a chow diet containing 5% cholestyramine for four days, after which the rats are sacrificed.
The rat livers are homogenized, and the incorporation of cholesterol-^14 C-acetate into nonsaponifiable lipid by the rat liver homogenate is measured. The micromolar concentration of compound required for 50% inhibition of sterol synthesis over a one-hour period is measured, and expressed as an IC50 value.

**Q.** CC(C)c1cc(-c2ccccn2)c(-c2ccc(F)cc2)n1CC[C@H]1C[C@H](O)CC(=O)O1 (racemic) [Compound 1, trans-(±)-6-[2-[2-(4-Fluorophenyl)-5-(1-methylethyl)-3-(2-pyridinyl)-1H-pyrrol-1-yl]ethyl]tetrahydro-4-hydroxy-2H-pyran-2-one] was tested. Which IC50 did it give?
**A.** Its IC50 is 48 nM.

**Q.** With CC(C)c1cc(-c2ccncc2)c(-c2ccc(F)cc2)n1CC[C@H]1C[C@H](O)CC(=O)O1 (racemic) [Compound 3, trans-(±)-6-[2-[2-(4-Fluorophenyl)-5-(1-methylethyl)-3-(4-pyridinyl)-1H-pyrrol-1-yl]ethyl]tetrahydro-4-hydroxy-2H-pyran-2-one] as the compound, how does the IC50 read?
**A.** Its IC50 is 13 nM.

**Q.** How did the IC50 turn out when CC(C)c1cc(-c2cccnc2)c(-c2ccc(F)cc2)n1CC[C@@H]1C[C@@H](O)CC(=O)O1 (relative stereo) [Compound 2, trans-(±)-6-[2-[2-[(4-Fluorophenyl)-5-(1-methylethyl)-3-(3-pyridinyl)-1H-pyrrol-1-yl]ethyl]tetrahydro-4-hydroxy-2H-pyran-2-one] was run?
**A.** The IC50 was 55 nM.

**Q.** Which IC50 does the source give for CC[C@H](C)C(=O)O[C@H]1CCC=C2C=C[C@H](C)[C@H](CC[C@@H]3C[C@@H](O)CC(=O)O3)[C@H]21 [Compactin, reference compound] here?
**A.** Its IC50 is 18 nM.
